Source: patent US10703843B2, “Compositions and methods for bonding glues, adhesives, and coatings to surfaces” (University of Virginia Patent Foundation, priority 2014, dated 2020)

Key:
[1] = Measured solubilities of ECA and PECA in solvents and of solvents in PECA; conditions: ±10%; for Solubility (wt %) ECA in: solubility of ECA in the listed solvent; for Solubility (wt %) PECA in: solubility of PECA in the listed solvent; for Solubility (wt %) in PECA: solubility of the listed solvent in PECA
[2] = from Ref. [17]; cited from earlier work
[3] = at 20° C.; from Refs [18], [19]; cited from earlier work

COCCOC [1,2-dimethoxyethane]
Solubility (wt %) ECA in [1]: miscible | Solubility (wt %) PECA in [1]: miscible | Solubility (wt %) in PECA [1]: miscible

CC(C)=O [acetone]
ET^N normalized empirical parameter of solvent polarity [2]: 0.355 | σ surface tension [3]: 24.1 mN/m | Solubility (wt %) ECA in [1]: miscible | Solubility (wt %) PECA in [1]: miscible | Solubility (wt %) in PECA [1]: miscible

C1CCCCC1 [cyclohexane]
ET^N normalized empirical parameter of solvent polarity [2]: 0.006 | σ surface tension [3]: 25.2 mN/m

CCOCC [diethyl ether]
ET^N normalized empirical parameter of solvent polarity [2]: 0.117 | σ surface tension [3]: 17.1 mN/m | Solubility (wt %) ECA in [1]: miscible | Solubility (wt %) PECA in [1]: 0.10 wt %

CCOC(C)=O [ethyl acetate]
ET^N normalized empirical parameter of solvent polarity [2]: 0.228 | σ surface tension [3]: 24.1 mN/m

CCCCCCC [n-heptane]
ET^N normalized empirical parameter of solvent polarity [2]: 0.012 | σ surface tension [3]: 20.1 mN/m | Solubility (wt %) ECA in [1]: 7.5 wt % | Solubility (wt %) PECA in [1]: 0.05 wt % | Solubility (wt %) in PECA [1]: 0.4 wt %

CCCCCC [n-hexane]
ET^N normalized empirical parameter of solvent polarity [2]: 0.009 | σ surface tension [3]: 18.4 mN/m

CCCCC [n-pentane]
ET^N normalized empirical parameter of solvent polarity [2]: 0.009 | σ surface tension [3]: 16.1 mN/m | Solubility (wt %) ECA in [1]: 11.4 wt % | Solubility (wt %) PECA in [1]: 0.11 wt % | Solubility (wt %) in PECA [1]: 0.8 wt %

Cc1ccccc1 [toluene]
ET^N normalized empirical parameter of solvent polarity [2]: 0.099

xylene
ET^N normalized empirical parameter of solvent polarity [2]: 0.074 | σ surface tension [3]: 29.3 mN/m | Solubility (wt %) ECA in [1]: miscible | Solubility (wt %) PECA in [1]: 0.24 wt %
